{"source": "ChEMBL document CHEMBL5727716", "about": "“Guanidine derivative and medical use thereof” (2020)", "target": "T1, Mucosa-associated lymphoid tissue lymphoma translocation protein 1 (Homo sapiens, UniProt Q9UDY8)", "T1 sequence (Q9UDY8 whole entry)": "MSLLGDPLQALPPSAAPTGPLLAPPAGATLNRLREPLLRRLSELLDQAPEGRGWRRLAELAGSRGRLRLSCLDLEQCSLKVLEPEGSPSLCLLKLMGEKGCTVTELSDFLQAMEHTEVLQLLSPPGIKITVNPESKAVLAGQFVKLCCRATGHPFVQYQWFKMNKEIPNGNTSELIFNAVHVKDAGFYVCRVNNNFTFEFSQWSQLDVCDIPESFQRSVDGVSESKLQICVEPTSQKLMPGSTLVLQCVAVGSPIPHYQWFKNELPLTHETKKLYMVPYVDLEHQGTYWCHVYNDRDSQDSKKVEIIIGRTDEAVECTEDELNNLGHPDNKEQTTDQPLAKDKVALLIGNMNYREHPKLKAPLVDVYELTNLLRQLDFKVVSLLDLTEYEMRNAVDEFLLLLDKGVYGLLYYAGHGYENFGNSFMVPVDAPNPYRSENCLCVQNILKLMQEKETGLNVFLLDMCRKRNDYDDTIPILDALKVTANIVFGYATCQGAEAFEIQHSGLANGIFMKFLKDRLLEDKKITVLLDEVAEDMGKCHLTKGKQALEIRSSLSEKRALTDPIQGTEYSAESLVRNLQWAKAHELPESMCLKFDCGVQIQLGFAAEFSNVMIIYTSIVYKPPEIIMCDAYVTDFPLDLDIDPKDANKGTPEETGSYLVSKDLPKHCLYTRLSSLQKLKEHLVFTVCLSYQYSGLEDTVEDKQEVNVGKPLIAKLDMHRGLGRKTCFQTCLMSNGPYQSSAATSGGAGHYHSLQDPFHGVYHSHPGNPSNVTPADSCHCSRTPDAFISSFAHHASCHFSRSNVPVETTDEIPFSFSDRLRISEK", "experiment": "Inhibition of Protease Activity Assay: Full-length cDNA of human MALT1 gene (GenBank accession No: AB026118.1) amplified by PCR was inserted in flame to a SalI site located downstream of GST gene in a pGEX6P3 vector (GE Healthcare Japan Corp.) to prepare a vector (hereinafter, referred to as a pGEX6P3-MALT1 vector). Subsequently, E. coli for protein expression (BL21-RIL-codon plus-DE3, Agilent Technologies, Inc.) was transformed with the pGEX6P3-MALT1 vector and then analyzed by ampicillin resistance screening and colony PCR to obtain an E. coli strain expressing recombinant GST fusion MALT1. Protein expression was induced with isopropyl-(3-thiogalactopyranoside. After the expression induction, E. coli precipitates were recovered by centrifugation from the E. coli culture solution, and the E. coli precipitates were homogenized and then centrifuged to obtain a supernatant. The supernatant was purified using GSTrap FF column (GE Healthcare Japan Corp.) to obtain recombinant GST fusion MALT1.B) Evaluation of Inhibition of Protease Activity of MALT1:To 89 μL of an enzyme solution ([…] GST fusion MALT1, 50 mmol/L MES, 150 mmol/L NaCl, 10% sucrose, 0.1% CHAPS, 10 mmol/L dithiothreitol, and 1 mol/L tri-ammonium citrate) per specimen, 1 μL of a test compound (DMSO-diluted solution) of each concentration was added to prepare a mixed solution. […]"}
{"compound": "CCCC(=O)/N=C(\\N)NCc1cnc(-c2ccc(Cl)cc2)c(-c2ccc(Cl)cc2)c1", "values": [{"measurement": "IC50", "result": 572, "unit": "nM"}]}
